Series [1] relates to rat pituitary adenoma GH3 cell lines. In words: MTT cytotoxicity assay, GH3 cells. In kind it is cell-based. The following applies: MTT method, read-out: Cytotoxicity IC50 against GH3 cell lines. The procedure: (§1) The cytotoxic activities against rat pituitary adenoma MMQ and GH3 cell lines were evaluated by MTT assay following the previous process. Briefly, MMQ and GH3 cell lines were seeded in 96-well plates (Corning, New York, NY, USA) at a density of 5 × 10^4 cells per well. Then, 10 μL of MTT reagent was added to each well and incubated at 37 °C with 5% CO2 for 4 h. Subsequently, 100 μL of acidified isopropyl alcohol was added. Then the OD value was measured at 450 nm using a microplate reader and the cell proliferation rate relative to the control was calculated. The IC50 was analyzed by SPSS 13.0 (SPSS, Chicago, IL, USA). Rat normal pituitary cells were used as a positive control.

Series [2] is described as follows: MTT cytotoxicity assay, rat normal pituitary cells. In kind it is cell-based. The following applies: rat, rat normal pituitary cells (RPC); MTT method; normal cells used as control; read-out: Cytotoxicity IC50 against rat normal pituitary cells (RPC). The procedure:
as §1
For orientation: Tetrazolium dyes change colour on reduction, which living cells bring about.

The subject of series [3] is rat normal pituitary cells (RPC). In words: MTT cytotoxicity assay, rat normal pituitary cells. In kind it is cell-based. The following applies: tumour cell IC50 compared with RPC IC50. Here is the method:
as §1

The test system of series [4] is rat prolactinoma MMQ cell lines. In words: MTT cytotoxicity assay, MMQ cells. In kind it is cell-based. The following applies: MTT method, read-out: Cytotoxicity IC50 against MMQ cell lines. Here is the method: as §1
In another series the target is α-glucosidase (Saccharomyces cerevisiae, UniProt P53341). Format: biochemical. The procedure: The assay of α-glucosidase inhibitory activity was carried out according to the reported method, with minor modifications. All of the assays were performed under 0.01 M potassium phosphate buffer (pH 7). Enzyme solutions were prepared to give 2.0 Units/mL in 2 mL buffer solution. Test samples were dissolved in dimethyl sulphoxide (DMSO) to give an initial concentration of 4000 μM/L. One-hundred fifty-five microliters of phosphate buffer, 10 μL of test samples, and 10 μL of diluted enzyme solution were mixed in each well of a 96-well microtiter plate. After 20 min incubation at 37 °C, 25 μL of substrate (p-nitrophenyl-α-D-glucopyranoside, 1.5 mg/mL) was added to each well to begin the enzymatic reaction. The reaction was monitored spectrophotometrically by measuring the absorbance at 410 nm for a 1 min interval. […] All measurements were done in triplicate from two independent experiments. The reported IC50 was the average value of two independent experiments.
Chain of α-glucosidase (P53341 whole entry): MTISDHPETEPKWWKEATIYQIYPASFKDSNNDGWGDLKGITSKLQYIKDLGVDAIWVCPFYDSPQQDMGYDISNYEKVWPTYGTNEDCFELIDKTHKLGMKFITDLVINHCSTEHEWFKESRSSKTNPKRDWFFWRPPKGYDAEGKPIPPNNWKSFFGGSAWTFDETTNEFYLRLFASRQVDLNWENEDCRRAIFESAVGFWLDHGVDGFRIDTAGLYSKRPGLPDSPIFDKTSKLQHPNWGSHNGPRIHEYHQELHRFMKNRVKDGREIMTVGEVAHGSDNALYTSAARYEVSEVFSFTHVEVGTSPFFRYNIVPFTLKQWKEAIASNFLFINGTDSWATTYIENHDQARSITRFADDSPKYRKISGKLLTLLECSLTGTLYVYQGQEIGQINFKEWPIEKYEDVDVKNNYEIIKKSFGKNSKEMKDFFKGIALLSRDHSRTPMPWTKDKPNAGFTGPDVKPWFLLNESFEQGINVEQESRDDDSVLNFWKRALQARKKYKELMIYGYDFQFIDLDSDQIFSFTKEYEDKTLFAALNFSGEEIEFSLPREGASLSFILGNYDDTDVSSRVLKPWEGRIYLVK

As usually defined, the IC50 is the midpoint of a concentration-inhibition curve. For the molecule `C[C@H]1CCC(=O)CCCCc2cc(O)cc(O)c2C(=O)O1` [Compound 8, (3S)-6-oxo-de-O-methyllasiodiplodin], the results for the IC50 in series [1], in series [2] and in series [4] were 21.4 µM, 143 µM and 13.6 µM, respectively. In series [3], the “Cytotoxicity against GH3/MMQ cells, fold better than against RPC cells” value is “seven-fold”.

In the case of `C[C@@H]1CCCCCCCc2cc(O)cc(O)c2C(=O)O1` [Compound 9, (3R)-de-O-methyllasiodiplodin], the IC50 in series [1] was found to be 6.44 µM; in series [2], 6.94 µM; in series [4] it was 6.58 µM.

On to `COc1cc(O)cc2c1C(=O)O[C@H](C)CCCCC/C=C/2` [Compound 16, (E)-9-etheno-lasiodiplodin], for which the “α-Glucosidase inhibitory effect, fold better than acarbose” value on α-glucosidase is “seven-fold”.

In the case of `C[C@@H]1CCCCCCCC(=O)Cc2cc(O)cc(O)c2C(=O)O1` [Compound 17, (3R)-nordinone], the IC50 in series [1] is 12.3 µM; in series [2], 100 µM; in series [4], 10.1 µM. Also, in series [3], the “Cytotoxicity against GH3/MMQ cells, fold better than against RPC cells” value is on record as “ten-fold”. Further, the “α-Glucosidase inhibitory effect, fold better than acarbose” value at α-glucosidase was “seven-fold”.
